Consider 20 compounds from US9611256B2, “Alkyne-, azide- and triazole-containing flavonoids as modulators for multidrug resistance in cancers” (The Hong Kong Polytechnic University, priority 2012, dated 2017).

Some results are limits rather than exact numbers.

The nature of one series: in vitro. The conditions noted are these: mouse.
Series [1] concerns P-gp, MRP1 and BCRP transporters. Briefly: Selectivity for ABC transporters, determined from % of reversion (Tables 1 and 2). In kind it is cell-based, human. The note with it: determined from % of reversion in Table 1 (>80% strongly, 79-50% moderately selective). From the text: Generally, the triazole dimers library can be divided into mono-selective, dual-selective and multi-selective ABC transporter modulators. Table 2 summarizes the selectivity of different active triazole dimers and some monomeric azides for the ABC transporters. […] From the study, it seems that the simple monomeric azides could be a highly BCRP-selective inhibitor. […] It is possible that differently selective (mono-, dual- and multi-) inhibitors of drug transporters could be potentially useful tools for investigation of complicated drug-resistance phenotypes and eventually, for treatment of drug-resistant cancers caused by overexpression of ABC transporters.
The selectivity of active triazole compounds for various ABC transporters was determined from the Table 1. It would be considered as strongly selective if it causes >80% of reversion. It would be considered as moderately selective if it results in 79-50% of reversion. Overall, the active triazole compounds can be divided into mono-, dual- and multi-selective for P-gp, MRP1 and BCRP transporters.

The next series deals with T1, BCRP (Homo sapiens, UniProt Q9UNQ0).
T1 sequence (Q9UNQ0 1-655): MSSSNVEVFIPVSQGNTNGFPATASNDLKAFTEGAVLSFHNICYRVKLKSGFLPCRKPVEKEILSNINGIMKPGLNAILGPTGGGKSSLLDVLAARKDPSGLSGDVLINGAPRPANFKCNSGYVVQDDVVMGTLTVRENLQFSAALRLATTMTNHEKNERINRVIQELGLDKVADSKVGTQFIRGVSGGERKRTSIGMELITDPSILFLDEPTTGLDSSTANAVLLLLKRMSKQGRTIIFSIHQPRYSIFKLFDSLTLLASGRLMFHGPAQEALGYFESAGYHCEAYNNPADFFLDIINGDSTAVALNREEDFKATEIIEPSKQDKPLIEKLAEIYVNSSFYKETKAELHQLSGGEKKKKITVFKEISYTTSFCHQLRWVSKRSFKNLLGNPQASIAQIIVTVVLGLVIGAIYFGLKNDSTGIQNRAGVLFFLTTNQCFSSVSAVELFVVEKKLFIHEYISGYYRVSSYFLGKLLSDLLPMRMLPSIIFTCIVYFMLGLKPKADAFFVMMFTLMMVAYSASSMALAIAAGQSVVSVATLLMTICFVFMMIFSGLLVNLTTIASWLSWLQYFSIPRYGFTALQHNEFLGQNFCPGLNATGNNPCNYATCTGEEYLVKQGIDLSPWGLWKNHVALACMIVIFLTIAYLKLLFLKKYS
Briefly: Reversal of BCRP-mediated topotecan resistance in MCF7-MX100 cells (cell proliferation assay). The note with it: for % of reversion of sensitivity of MCF7-MX100 towards topotecan: triazole dimers at 1.0 μM; for Topotecan resistance of MCF7-MX100 Therapeutic index: (IC50 towards L929 or Raw264.7)/(EC50 for reversing drug resistance).

Compound `C#CCOCCOc1ccc2c(=O)cc(-c3ccccc3)oc2c1` [Ac13, 2-Phenyl-7-(2-(prop-2-yn-1-yloxy)ethoxy)-4H-chromen-4-one] returned an IC50 at 5 days in “in vitro” of 32.2 µM.

Consider `O=c1cc(-c2ccc(OCCOCCOCCn3cc(CN(CCOc4ccc5c(=O)cc(-c6ccccc6)oc5c4)Cc4ccccc4)nn3)cc2)oc2ccccc12` [Ac16Az2, 7-(2-(Benzyl((1-(2-(2-(2-(4-(4-oxo-4H-chromen-2-yl)phenoxy)ethoxy)ethoxy)ethyl)-1H-1,2,3-triazol-4-yl)methyl)amino)ethoxy)-2-phenyl-4H-chromen-4-one], for which the IC50 at 5 days in the series “in vitro” was > 100 µM. On to `O=c1cc(-c2ccc(OCCOCCOCCn3cc(COCCOc4ccc5c(=O)cc(-c6ccccc6)oc5c4)nn3)cc2)oc2ccccc12` [Ac13Az2, 7-(2-((1-(2-(2-(2-(4-(4-Oxo-4H-chromen-2-yl)phenoxy)ethoxy)ethoxy)ethyl)-1H-1,2,3-triazol-4-yl)methoxy)ethoxy)-2-phenyl-4H-chromen-4-one], for which, in the series “in vitro”, the IC50 at 5 days is < 12.1 µM.

As to `C#CCN(CCOc1ccc2c(=O)cc(-c3ccccc3)oc2c1)Cc1ccccc1` [Ac16, 7-(2-(Benzyl(prop-2-yn-1-yl)amino)ethoxy)-2-phenyl-4H-chromen-4-one], half-maximal inhibition in “in vitro” (IC50 at 5 days) required 58.2 µM. As for `Cc1ccc2oc(-c3ccc(OCCCCc4cn(CCOCCOCCOc5ccc(-c6cc(=O)c7cc(C)ccc7o6)cc5)nn4)cc3)cc(=O)c2c1` [Ac5Az3, 6-Methyl-2-(4-(2-(2-(2-(4-(4-(4-(6-methyl-4-oxo-4H-chromen-2-yl)phenoxy)butyl)-1H-1,2,3-triazol-1-yl)ethoxy)ethoxy)ethoxy)phenyl)-4H-chromen-4-one], the “Selectivity for ABC transporters (P-gp, MRP1, BCRP)” value (“Selectivity … (P-gp, MRP1, BCRP)” below) in series [1] is “P-gp and MRP1-dual-selectivity”. On the same count and under the same terms, the same measure for `[N-]=[N+]=NCCOCCOCCOc1ccc(-c2oc3ccccc3c(=O)c2OCc2ccccc2)cc1` [Az5, 2-(4-(2-(2-(2-Azidoethoxy)ethoxy)ethoxy)phenyl)-3-(benzyloxy)-4H-chromen-4-one]: “mono-BCRP selectivity”. Take `O=c1cc(-c2ccc(OCCOCCn3cc(CCCOc4ccc(-c5cc(=O)c6ccc(F)cc6o5)cc4)nn3)cc2)oc2ccccc12` [Ac3Az1, 7-Fluoro-2-(4-(3-(1-(2-(2-(4-(4-oxo-4H-chromen-2-yl)phenoxy)ethoxy)ethyl)-1H-1,2,3-triazol-4-yl)propoxy)phenyl)-4H-chromen-4-one]: the IC50 at 5 days in the series “in vitro” was > 100 µM. Further, the “% of reversion of sensitivity of MCF7-MX100 towards topotecan” value at BCRP is “about 53.3%”. Consider `[N-]=[N+]=NCCOCCOCCOc1ccc(-c2cc(=O)c3cc(Cl)cc(Cl)c3o2)cc1` [Az6, 2-(4-(2-(2-(2-Azidoethoxy)ethoxy)ethoxy)phenyl)-6,8-dichloro-4H-chromen-4-one], for which the “Selectivity … (P-gp, MRP1, BCRP)” value in series [1] is given as “mono-BCRP selectivity”.

In the case of `Cc1ccc2oc(-c3ccc(OCCCCc4cn(CCOCCOc5ccc(-c6oc7ccccc7c(=O)c6O)cc5)nn4)cc3)cc(=O)c2c1` [Ac5Az100H, 3-Hydroxy-2-(4-(2-(2-(4-(4-(4-(6-methyl-4-oxo-4H-chromen-2-yl)phenoxy)butyl)-1H-1,2,3-triazol-1-yl)ethoxy)ethoxy)phenyl)-4H-chromen-4-one], the IC50 at 5 days in the series “in vitro” was < 12.1 µM. As to `O=c1[nH]c(-c2ccc(OCCCc3cn(CCOCCOc4ccc(-c5cc(=O)c6ccccc6o5)cc4)nn3)cc2)nc2ccccc12` [Ac11Az1, 2-(4-(3-(1-(2-(2-(4-(4-Oxo-4H-chromen-2-yl)phenoxy)ethoxy)ethyl)-1H-1,2,3-triazol-4-yl)propoxy)phenyl)quinazolin-4(3H)-one], the “Selectivity … (P-gp, MRP1, BCRP)” value in series [1] is reported as “mono-BCRP selectivity”. The IC50 at 5 days in “in vitro” was > 100 µM. In addition, the “Topotecan resistance of MCF7-MX100 Therapeutic index” value at BCRP is >3225.8. Turning to `O=c1cc(-c2ccc(OCCOCCn3cc(CN(CCOc4ccc5c(=O)cc(-c6ccccc6)oc5c4)Cc4ccccc4)nn3)cc2)oc2ccccc12` [Ac16Az1, 7-(2-(Benzyl((1-(2-(2-(4-(4-oxo-4H-chromen-2-yl)phenoxy)ethoxy)ethyl)-1H-1,2,3-triazol-4-yl)methyl)amino)ethoxy)-2-phenyl-4H-chromen-4-one], the IC50 at 5 days in “in vitro” is > 100 µM. At BCRP, the “% of reversion of sensitivity of MCF7-MX100 towards topotecan” value is reported as 80.0%. As for `COCOc1cc(OCc2ccccc2)c2c(=O)cc(-c3ccc(OCCCc4cn(CCOCCOc5ccc(-c6cc(=O)c7ccccc7o6)cc5)nn4)cc3)oc2c1` [Ac4Az1, 5-(Benzyloxy)-7-(methoxymethoxy)-2-(4-(3-(1-(2-(2-(4-(4-oxo-4H-chromen-2-yl)phenoxy)ethoxy)ethyl)-1H-1,2,3-triazol-4-yl)propoxy)phenyl)-4H-chromen-4-one], in the series “in vitro”, the IC50 at 5 days was < 12.1 µM.

In the case of `COC(=O)c1cccc(COc2c(-c3ccc(OCCOCCN=[N+]=[N-])cc3)oc3ccccc3c2=O)c1` [Az8, Methyl 3-(((2-(4-(2-(2-azidoethoxy)ethoxy)phenyl)-4-oxo-4H-chromen-3-yl)oxy)methyl)benzoate], the “Selectivity … (P-gp, MRP1, BCRP)” value in series [1] was “mono-BCRP selectivity”. Also, the IC50 at 5 days in the series “in vitro” was 67.5 µM. The “Topotecan resistance of MCF7-MX100 Therapeutic index” value at BCRP is reported as 562.5. Regarding `Cc1ccc2oc(-c3ccc(OCCCCc4cn(CCN(CCOc5ccc6c(=O)cc(-c7ccccc7)oc6c5)Cc5ccccc5)nn4)cc3)cc(=O)c2c1` [Ac5Az15, 2-(4-(4-(1-(2-(Benzyl(2-((4-oxo-2-phenyl-4H-chromen-7-yl)oxy)ethyl)amino)ethyl)-1H-1,2,3-triazol-4-yl)butoxy)phenyl)-6-methyl-4H-chromen-4-one], the “Selectivity … (P-gp, MRP1, BCRP)” value in series [1] was “P-gp and MRP1-dual-selectivity”. The same measure, in the same setting: the same measure for `O=c1cc(-c2ccccc2)oc2cc(OCCOCCOCCn3cc(CN(Cc4ccccc4)Cc4cn(CCOCCOCCOc5ccc6c(=O)cc(-c7ccccc7)oc6c5)nn4)nn3)ccc12` [Ac15Az12, 7,7′-(((((((4,4′-((Benzylazanediyl)bis(methylene))bis(1H-1,2,3-triazole-4,1-diyl))bis(ethane-2,1-diyl))bis(oxy))bis(ethane-2,1-diyl))bis(oxy))bis(ethane-2,1-diyl))bis(oxy))bis(2-phenyl-4H-chromen-4-one)]: “mono-BCRP selectivity”; for `O=c1cc(-c2ccccc2)oc2cc(OCCCCc3cn(CCOCCOCCOc4ccc(-c5oc6ccccc6c(=O)c5OCc5ccccc5)cc4)nn3)ccc12` [Ac12Az5, 3-(Benzyloxy)-2-(4-(2-(2-(2-(4-(4-((4-oxo-2-phenyl-4H-chromen-7-yl)oxy)butyl)-1H-1,2,3-triazol-1-yl)ethoxy)ethoxy)ethoxy)phenyl)-4H-chromen-4-one]: “multi-selectivity towards P-gp, MRP1 and BCRP transporters”; for `O=c1cc(-c2ccccc2)oc2cc(OCCOCCn3cc(COCCOc4ccc5c(=O)cc(-c6ccccc6)oc5c4)nn3)ccc12` [Ac13Az11, 7-(2-((1-(2-(2-((4-Oxo-2-phenyl-4H-chromen-7-yl)oxy)ethoxy)ethyl)-1H-1,2,3-triazol-4-yl)methoxy)ethoxy)-2-phenyl-4H-chromen-4-one]: “mono-BCRP selectivity”. Regarding `O=c1[nH]c(-c2ccc(OCCCc3cn(CCOCCOCCOc4ccc(-c5cc(=O)c6ccccc6o5)cc4)nn3)cc2)nc2ccccc12` [Ac11Az2, 2-(4-(3-(1-(2-(2-(2-(4-(4-oxo-4H-chromen-2-yl)phenoxy)ethoxy)ethoxy)ethyl)-1H-1,2,3-triazol-4-yl)propoxy)phenyl)quinazolin-4(3H)-one], the IC50 at 5 days in the series “in vitro” was < 12.1 µM.

For `O=c1cc(-c2ccccc2)oc2cc(OCCOCCOCCn3cc(COCCOc4ccc5c(=O)cc(-c6ccccc6)oc5c4)nn3)ccc12` [Ac13Az12, 7-(2-((1-(2-(2-(2-((4-Oxo-2-phenyl-4H-chromen-7-yl)oxy)ethoxy)ethoxy)ethyl)-1H-1,2,3-triazol-4-yl)methoxy)ethoxy)-2-phenyl-4H-chromen-4-one], the “Selectivity … (P-gp, MRP1, BCRP)” value in series [1] is “mono-BCRP selectivity”. Further, the IC50 at 5 days in the series “in vitro” was < 12.1 µM. `Cc1ccc2oc(-c3ccc(OCCCCc4cn(CCOCCOCCOc5ccc(-c6oc7ccccc7c(=O)c6O)cc5)nn4)cc3)cc(=O)c2c1` [Ac5Az5OH, 3-Hydroxy-2-(4-(2-(2-(2-(4-(4-(4-(6-methyl-4-oxo-4H-chromen-2-yl)phenoxy)butyl)-1H-1,2,3-triazol-1-yl)ethoxy)ethoxy)ethoxy)phenyl)-4H-chromen-4-one]: in the series “in vitro”, the IC50 at 5 days is < 12.1 µM.

For orientation: IC50 means the concentration that inhibits the measured activity by half. A high value points to lower potency.
